Counter-ions that a name gives are not always drawn.
Experiments:
TLR7 = biological target: T1, TLR7 (Homo sapiens, UniProt Q9NYK1); assay: HEK TLR7 Cell Assay; type: cell-based; details: TLR7/NFKb HEK cells, R848 agonist 10 uM final, Steady-Glo readout
T1 construct: expressed in transfected cells; host or cells: HEK cells carrying TLR7 and an NFkB luciferase reporter
T1 sequence (Q9NYK1 27-1049): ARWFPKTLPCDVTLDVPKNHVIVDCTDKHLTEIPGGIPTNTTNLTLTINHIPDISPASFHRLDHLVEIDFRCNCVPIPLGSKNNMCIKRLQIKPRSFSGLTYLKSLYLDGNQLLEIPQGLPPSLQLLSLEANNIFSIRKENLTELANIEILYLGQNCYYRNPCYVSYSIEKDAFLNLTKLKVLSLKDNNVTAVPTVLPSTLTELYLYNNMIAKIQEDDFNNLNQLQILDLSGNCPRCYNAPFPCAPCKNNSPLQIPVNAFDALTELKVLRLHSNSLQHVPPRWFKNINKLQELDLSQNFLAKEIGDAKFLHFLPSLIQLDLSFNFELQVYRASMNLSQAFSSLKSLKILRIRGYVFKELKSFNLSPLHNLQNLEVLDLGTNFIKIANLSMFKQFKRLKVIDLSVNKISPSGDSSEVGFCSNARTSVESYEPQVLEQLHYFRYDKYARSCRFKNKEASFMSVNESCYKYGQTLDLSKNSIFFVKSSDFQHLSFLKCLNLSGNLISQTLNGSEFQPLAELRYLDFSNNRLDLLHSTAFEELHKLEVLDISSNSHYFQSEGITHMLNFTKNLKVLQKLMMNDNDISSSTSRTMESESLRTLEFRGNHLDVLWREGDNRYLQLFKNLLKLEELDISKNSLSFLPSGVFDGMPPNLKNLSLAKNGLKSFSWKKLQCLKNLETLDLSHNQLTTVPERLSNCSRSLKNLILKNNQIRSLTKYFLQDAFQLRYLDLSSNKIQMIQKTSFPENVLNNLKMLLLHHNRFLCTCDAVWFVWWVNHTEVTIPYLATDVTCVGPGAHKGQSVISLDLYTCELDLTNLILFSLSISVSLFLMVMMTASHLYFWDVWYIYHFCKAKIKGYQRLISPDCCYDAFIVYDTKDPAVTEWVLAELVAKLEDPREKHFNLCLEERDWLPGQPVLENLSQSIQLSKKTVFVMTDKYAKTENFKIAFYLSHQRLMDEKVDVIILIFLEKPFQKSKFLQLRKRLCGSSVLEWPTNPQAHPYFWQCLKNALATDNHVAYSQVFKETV
Description: Example 24: HEK TLR7 Cell Assay
(§1) Into 384 CulturePlates (Corning 3707) was placed 5000 c/w of TLR7/NFKb HEK cells in 30 uL DMEM without Phenol red (gibco #31053) and 10% FCS-HI, 2 mM L-Glutamine, 1% Pen/Strept. The cells are incubated for 24 h at 37 degrees Celsius, and 10% carbon dioxide. Dispense 3 uL of controls, standards, and compounds to wells, incubate for 30 min then add 3 uL of R848 (10 uM final concentration) agonist in 20 mM Hepes. Incubate for 5 hours and then allow to stand at room temperature for 15 min. Add 10 uL of Steady-Glo substrate reagent and shake assay plate for 5 min at 1500 rpm. Let the assay plate sit for 30 min at room temperature and then read plate on EnVision.

TLR8 = biological target: T2, TLR8 (Homo sapiens, UniProt Q9NR97); assay: HEK TLR8 Cell Assay; type: cell-based; details: TLR8/NFKb HEK cells, R848 agonist 30 uM final, Steady-Glo readout
T2 construct: expressed in transfected cells; host or cells: HEK cells carrying TLR8 and an NFkB luciferase reporter
T2 sequence (Q9NR97 27-1041): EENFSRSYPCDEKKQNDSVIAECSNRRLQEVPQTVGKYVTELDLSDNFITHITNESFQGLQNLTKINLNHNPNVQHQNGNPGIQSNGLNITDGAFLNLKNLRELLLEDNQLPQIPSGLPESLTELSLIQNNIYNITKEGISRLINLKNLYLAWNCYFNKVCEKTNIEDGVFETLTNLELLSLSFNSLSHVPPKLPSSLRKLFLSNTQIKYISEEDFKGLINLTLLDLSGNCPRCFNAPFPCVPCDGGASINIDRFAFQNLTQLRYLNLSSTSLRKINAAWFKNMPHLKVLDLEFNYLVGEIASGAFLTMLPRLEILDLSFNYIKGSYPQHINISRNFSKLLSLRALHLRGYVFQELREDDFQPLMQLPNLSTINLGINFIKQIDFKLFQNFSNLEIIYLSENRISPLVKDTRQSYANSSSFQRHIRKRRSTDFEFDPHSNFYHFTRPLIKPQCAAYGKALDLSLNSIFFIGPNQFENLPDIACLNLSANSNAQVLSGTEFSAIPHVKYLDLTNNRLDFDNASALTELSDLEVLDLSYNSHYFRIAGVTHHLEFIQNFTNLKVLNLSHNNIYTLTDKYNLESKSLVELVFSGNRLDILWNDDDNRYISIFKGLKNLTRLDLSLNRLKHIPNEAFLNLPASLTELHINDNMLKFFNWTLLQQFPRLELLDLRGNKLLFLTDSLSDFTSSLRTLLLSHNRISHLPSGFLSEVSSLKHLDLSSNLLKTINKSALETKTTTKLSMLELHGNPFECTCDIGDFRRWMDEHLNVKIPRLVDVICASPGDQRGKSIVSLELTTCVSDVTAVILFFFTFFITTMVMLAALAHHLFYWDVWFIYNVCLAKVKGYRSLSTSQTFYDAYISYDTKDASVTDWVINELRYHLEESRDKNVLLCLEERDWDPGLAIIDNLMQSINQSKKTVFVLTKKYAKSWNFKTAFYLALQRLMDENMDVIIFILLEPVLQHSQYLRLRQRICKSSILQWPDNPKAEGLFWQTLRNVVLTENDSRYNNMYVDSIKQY
Description: Example 25: HEK TLR8 Cell Assay
as §1, with “TLR8/NFKb” for “TLR7/NFKb”, “(30” for “(10”

| SMILES | IC50 (TLR7) [nM] | IC50 (TLR8) [nM] |
| --- | --- | --- |
| CC(C)[C@H](O)C(=O)N[C@H]1CN(c2ccc(C#N)c3nccnc23)C[C@H]1C [Compound 15, (2S)—N-[(3R,4R)-1-(8-cyanoquinoxalin-5-yl)-4-methylpyrrolidin-3-yl]-2-hydroxy-3-methylbutanamide] | 1000 to 10000 | 1000 to 10000 |
| C[C@@H]1CN(c2ccc(C#N)c3nccnc23)C[C@@H]1NC(=O)CC1(F)CCN(C)CC1 [Compound 10, N-[(3R,4R)-1-(8-cyanoquinoxalin-5-yl)-4-methylpyrrolidin-3-yl]-2-(4-fluoro-1-methylpiperidin-4-yl)acetamide] | < 1000 | < 1000 |
| CC1CN(c2ccc(C#N)c3nccnc23)CC1N (centres unmarked) [Compound 56, 8-(3-Amino-4-methyl-pyrrolidin-1-yl)-quinoxaline-5-carbonitrile hydrochloride] | < 1000 | < 1000 |
| C[C@@H]1CN(c2ccc(C(F)(F)F)c3ncccc23)C[C@@H]1NC(=O)CC1CCN(C)C1 (single isomer, unassigned) [Compound 22] | < 1000 | < 1000 |
| C[C@@H]1CN(c2ccc(C#N)c3nccnc23)C[C@@H]1NC(=O)CC1CCN(C)CC1(F)F (single isomer, unassigned) [Compound 11] | < 1000 | < 1000 |
| C[C@@H]1CN(c2ccc(C(F)(F)F)c3ncccc23)C[C@@H]1NC(=O)CC1(C)CCN(C)CC1 [Compound 24, 2-(1,4-dimethylpiperidin-4-yl)-N-[(3R,4R)-4-methyl-1-[8-(trifluoromethyl)quinolin-5-yl]pyrrolidin-3-yl]acetamide] | < 1000 | < 1000 |
| C[C@@H]1CN(c2ccc(C#N)c3nccnc23)C[C@@H]1NC(=O)CN1CCOCC1 [Compound 7, N-[(3R,4R)-1-(8-cyanoquinoxalin-5-yl)-4-methylpyrrolidin-3-yl]-2-(morpholin-4-yl)acetamide] | 1000 to 10000 | 1000 to 10000 |
| C[C@@H]1CN(c2ccc(C(F)(F)F)c3ncccc23)C[C@@H]1NC(=O)CC1CCN(C)CC1 [Compound 18, N-[(3R,4R)-4-methyl-1-[8-(trifluoromethyl)quinolin-5-yl]pyrrolidin-3-yl]-2-(1-methylpiperidin-4-yl)acetamide] | < 1000 | < 1000 |
| NC1CN(c2ccc(C(F)(F)F)c3ncccc23)CC1F (single isomer, unassigned) [Compound 50] | > 10000 | > 10000 |
| C[C@@H]1CN(c2ccc(C(F)(F)F)c3ncccc23)C[C@@H]1NC(=O)CN1CCOCC1 [Compound 23, N-[(3R,4R)-4-methyl-1-[8-(trifluoromethyl)quinolin-5-yl]pyrrolidin-3-yl]-2-(morpholin-4-yl)acetamide] | 1000 to 10000 | > 10000 |
| Cc1ccc(N2C[C@@H](C)[C@@H](NC(=O)CC3(C)CCN(C)CC3)C2)c2cccnc12 [Compound 40, 2-(1,4-dimethylpiperidin-4-yl)-N-[(3R,4R)-4-methyl-1-(8-methylquinolin-5-yl)pyrrolidin-3-yl]acetamide] | < 1000 | 1000 to 10000 |
| C[C@@H]1CN(c2ccc(C#N)c3nccnc23)C[C@@H]1NC(=O)CC1CCN(C)CC1(F)F (single isomer, unassigned) [Compound 12] | < 1000 | < 1000 |
| C[C@@H]1CN(c2ccc(C#N)c3nccnc23)C[C@@H]1NC(=O)CC1CCN(C)C1 (single isomer, unassigned) [Compound 5] | < 1000 | < 1000 |
| Cc1ncc(N2C[C@@H](C)[C@@H](NC(=O)CC3CCN(C)CC3)C2)c2cccnc12 [Compound 52, N-[(3R,4R)-4-methyl-1-(8-methyl-[1,7]naphthyridin-5-yl)-pyrrolidin-3-yl]-2-(1-methyl-piperidin-4-yl)-acetamide] | < 1000 | > 10000 |
| Cc1ccc(N2C[C@@H](C)[C@@H](NC(=O)CC3CCN(C)C3)C2)c2cccnc12 (single isomer, unassigned) [Compound 38] | < 1000 | 1000 to 10000 |
| CC(C)[C@H](O)C(=O)N[C@H]1CN(c2ccc(C(F)(F)F)c3ncccc23)C[C@H]1C [Compound 31, (2S)-2-hydroxy-3-methyl-N-[(3R,4R)-4-methyl-1-[8-(trifluoromethyl)quinolin-5-yl]pyrrolidin-3-yl]butanamide] | 1000 to 10000 | > 10000 |
| Cc1ccc(N2C[C@@H](C)[C@@H](NC(=O)CN3CCOCC3)C2)c2cccnc12 [Compound 39, N-[(3R,4R)-4-methyl-1-(8-methylquinolin-5-yl)pyrrolidin-3-yl]-2-(morpholin-4-yl)acetamide] | 1000 to 10000 | > 10000 |
| Cc1ccc(N2C[C@@H](C)[C@@H](NC(=O)CC3(F)CCN(C)CC3)C2)c2cccnc12 [Compound 42, 2-(4-fluoro-1-methylpiperidin-4-yl)-N-[(3R,4R)-4-methyl-1-(8-methylquinolin-5-yl)pyrrolidin-3-yl]acetamide] | < 1000 | < 1000 |
| Cc1ccc(N2C[C@@H](C)[C@@H](NC(=O)CC3(F)CCNCC3)C2)c2cccnc12 [Compound 41, 2-(4-fluoropiperidin-4-yl)-N-[(3R,4R)-4-methyl-1-(8-methylquinolin-5-yl)pyrrolidin-3-yl]acetamide] | < 1000 | 1000 to 10000 |
| C[C@@H]1CN(c2ccc(C#N)c3nccnc23)C[C@@H]1NC(=O)CC1CCCN(C)C1 (single isomer, unassigned) [Compound 4] | < 1000 | < 1000 |
| Cc1ccc(N2C[C@@H](C)[C@@H](NC(=O)C(O)C3CC3)C2)c2cccnc12 (single isomer, unassigned) [Compound 46] | 1000 to 10000 | > 10000 |
| C[C@@H]1CN(c2ccc(C(F)(F)F)c3ncccc23)C[C@@H]1NC(=O)CC1CCN(C)CC1(F)F (single isomer, unassigned) [Compound 27] | 1000 to 10000 | 1000 to 10000 |

Reference: US10793553B2, “TLR7/8 antagonists and uses thereof” (Merck Patent GmbH, priority 2017, dated 2020)
